Reference: PubChem BioAssay AID330 (DTP/NCI, 2004)
Where “and” joins values, the source holds several entries; their conditions need not be identical. Identical values can stand only once. Toxic doses and inconclusive results are not listed. Rule for the calls: active = survival T/C of 150% or more; inactive = T/C below 125% in these data.

Test system: P388 leukemia ip, CD2F1 mice, survival T/C
Test: NCI In Vivo Anticancer Drug Screen. Data for tumor model P388 Leukemia (intraperitoneal) in CD2F1 (CDF1) mice
Conditions: endpoint: median survival time, higher = longer survival
In short: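 Mice carrying the transplanted tumor received test compound or vehicle. Survival was recorded in each group, and the value is the treated-group measurement divided by that of the vehicle-treated control group.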

[1] = dose: 50.0 mg/kg/injection, schedule: Q01DX009 (ip), vehicle: saline with Tween-80
[2] = dose: 100.0 mg/kg/injection, schedule: Q01DX009 (ip), vehicle: saline with Tween-80
[3] = dose: 50.0 mg/kg/injection, schedule: Q01DX005 (ip), vehicle: saline with Tween-80
[4] = dose: 100.0 mg/kg/injection, schedule: Q01DX005 (ip), vehicle: saline with Tween-80
[5] = dose: 200.0 mg/kg/injection, schedule: Q01DX005 (ip), vehicle: saline with Tween-80
[6] = dose: 100.0 mg/kg/injection, schedule: Q01DX009 (ip), vehicle: saline
[7] = dose: 25.0 mg/kg/injection, schedule: Q01DX005 (ip), vehicle: saline
[8] = dose: 50.0 mg/kg/injection, schedule: Q01DX005 (ip), vehicle: saline

Measured: T/C

C/C1=C/C2=CC(C)C[C@@H]2C(=O)[C@]2(C)C(=O)CC(C)(C)[C@H]2CC1=O (some centres not stated)
inactive: dose: 0.13 mg/kg/injection, schedule: Q01DX009 (ip), vehicle: Klucel (hydroxypropylcellulose) (HPC) 100 % of control | dose: 0.25 mg/kg/injection, schedule: Q01DX009 (ip), vehicle: Klucel (hydroxypropylcellulose) (HPC) 103 % of control | dose: 0.25 mg/kg/injection, schedule: Q01DX009 (ip), vehicle: saline with Tween-80 99 % of control | dose: 0.5 mg/kg/injection, schedule: Q01DX009 (ip), vehicle: Klucel (hydroxypropylcellulose) (HPC) 102 % of control | dose: 0.5 mg/kg/injection, schedule: Q01DX009 (ip), vehicle: saline with Tween-80 108 % of control | dose: 1.0 mg/kg/injection, schedule: Q01DX009 (ip), vehicle: Klucel (hydroxypropylcellulose) (HPC) 106 % of control | dose: 1.0 mg/kg/injection, schedule: Q01DX009 (ip), vehicle: saline with Tween-80 99 % of control | dose: 2.0 mg/kg/injection, schedule: Q01DX009 (ip), vehicle: saline with Tween-80 101 % of control | dose: 125.0 micrograms/kg/injection, schedule: Q01DX009 (ip), vehicle: saline + alcohol 105 % of control | dose: 250.0 micrograms/kg/injection, schedule: Q01DX009 (ip), vehicle: saline + alcohol 103 % of control | dose: 500.0 micrograms/kg/injection, schedule: Q01DX009 (ip), vehicle: saline + alcohol 112 % of control | dose: 1000.0 micrograms/kg/injection, schedule: Q01DX009 (ip), vehicle: saline + alcohol 107 % of control | dose: 2000.0 micrograms/kg/injection, schedule: Q01DX009 (ip), vehicle: saline + alcohol 105 % of control

Brc1cc(-c2ccccc2)on1
inactive: dose: 100.0 mg/kg/injection, schedule: Q04DX003 (ip), vehicle: Klucel (hydroxypropylcellulose) (HPC) 108 % of control | dose: 200.0 mg/kg/injection, schedule: Q04DX003 (ip), vehicle: Klucel (hydroxypropylcellulose) (HPC) 103 % of control | dose: 400.0 mg/kg/injection, schedule: Q04DX003 (ip), vehicle: Klucel (hydroxypropylcellulose) (HPC) 105 % of control

COC(=O)C1=C(C(=O)OC)C2C3CC4C(C13)C42
inactive: dose: 9.4 mg/kg/injection, schedule: Q01DX009 (none), vehicle: saline 105 % of control | dose: 18.75 mg/kg/injection, schedule: Q01DX009 (none), vehicle: saline 106 % of control | dose: 37.5 mg/kg/injection, schedule: Q01DX009 (none), vehicle: saline 105 % of control | dose: 75.0 mg/kg/injection, schedule: Q01DX009 (none), vehicle: saline 99 % of control

COC(=O)NC1(NC(=O)OC)NC(=O)c2cc(OC)c(OC)c(OC)c2N1
inactive: dose: 25.0 mg/kg/injection, schedule: Q01DX005 (ip), vehicle: saline + alcohol 102 % of control | dose: 50.0 mg/kg/injection, schedule: Q01DX005 (ip), vehicle: saline + alcohol 98 % of control | dose: 100.0 mg/kg/injection, schedule: Q01DX005 (ip), vehicle: saline + alcohol 100 % of control | dose: 200.0 mg/kg/injection, schedule: Q01DX005 (ip), vehicle: saline + alcohol 93 % of control

CC(NC(=O)OCc1ccccc1)C(=O)NCC(=O)OCc1ccccc1 (configuration not stated)
inactive: dose: 50.0 mg/kg/injection, schedule: Q01DX005 (ip), vehicle: Klucel (hydroxypropylcellulose) (HPC) 100 % of control | dose: 100.0 mg/kg/injection, schedule: Q01DX005 (ip), vehicle: Klucel (hydroxypropylcellulose) (HPC) 98 % of control | dose: 200.0 mg/kg/injection, schedule: Q01DX005 (ip), vehicle: Klucel (hydroxypropylcellulose) (HPC) 104 % of control

C=C([Se]c1ccccc1)C(C)(C)C
inactive: [1] 114 % of control | [2] 119 % of control

COc1ccc(C2OC(=O)c3ncccc32)cc1 (configuration not stated)
inactive: [1] 102 % of control | [2] 104 % of control | dose: 200.0 mg/kg/injection, schedule: Q01DX009 (ip), vehicle: saline with Tween-80 104 % of control

CC1C2c3ccccc3C(c3ccccc32)C1CO (configuration not stated)
inactive: [3] 92 % of control | [4] 91 % of control | [5] 90 % of control

COc1ccc(C2CC(=O)C(C(=O)OC3CCCCC3)C2c2ccc(OC)cc2)cc1 (configuration not stated)
inactive: dose: 12.5 mg/kg/injection, schedule: Q01DX001 (ip), vehicle: Klucel (hydroxypropylcellulose) (HPC) 92 % of control | dose: 25.0 mg/kg/injection, schedule: Q01DX001 (ip), vehicle: Klucel (hydroxypropylcellulose) (HPC) 93 % of control | dose: 50.0 mg/kg/injection, schedule: Q01DX001 (ip), vehicle: Klucel (hydroxypropylcellulose) (HPC) 86 % of control

O=S1(=O)OC(c2ccc(O)c(O)c2)(c2ccc(O)c(O)c2)c2ccccc21
inactive: [6] 100 % of control and 98 % of control

CC(=O)OC1C(=C(Br)Br)C(COC(=O)c2ccccc2)OC1n1cnc2c(NC(=O)c3ccccc3)ncnc21 (configuration not stated)
inactive: dose: 100.0 mg/kg/injection, schedule: Q01DX001 (ip), vehicle: saline with Tween-80 98 % of control | dose: 200.0 mg/kg/injection, schedule: Q01DX001 (ip), vehicle: saline with Tween-80 90 % of control | dose: 400.0 mg/kg/injection, schedule: Q01DX001 (ip), vehicle: saline with Tween-80 92 % of control

CN(C)CCNc1ccc(CO)c2sc3ccccc3c(=O)c12
inactive: dose: 25.0 mg/kg/injection, schedule: Q01DX005 (ip), vehicle: saline with Tween-80 93 % of control and 94 % of control | [3] 101 % of control and 114 % of control

COc1ccc(-c2nc(C)nc3c2Cc2c(ccc4ccccc24)O3)cc1
inactive: dose: 50.0 mg/kg/injection, schedule: Q01DX009 (ip), vehicle: saline 98 % of control | [6] 102 % of control | dose: 200.0 mg/kg/injection, schedule: Q01DX009 (ip), vehicle: saline 102 % of control

O=[N+]([O-])c1ccc(N/N=C(\CO)c2ccccc2)c([N+](=O)[O-])c1
inactive: dose: 50.0 mg/kg/injection, schedule: Q04DX003 (ip), vehicle: saline with Tween-80 100 % of control | dose: 100.0 mg/kg/injection, schedule: Q04DX003 (ip), vehicle: saline with Tween-80 104 % of control | dose: 200.0 mg/kg/injection, schedule: Q04DX003 (ip), vehicle: saline with Tween-80 100 % of control

Cc1cc(C2CCCCC2)n(O)c(=O)c1
inactive: [7] 100 % of control | [8] 99 % of control | dose: 100.0 mg/kg/injection, schedule: Q01DX005 (ip), vehicle: saline 106 % of control

N#CC(C#N)=CC(C#N)C#N
inactive: dose: 12.5 mg/kg/injection, schedule: Q01DX005 (ip), vehicle: saline 104 % of control | [7] 101 % of control | [8] 107 % of control and 92 % of control

CC(O)C(O)C(O)C(C=O)OC1OC(C)C(O)C(O)C1O (configuration not stated)
inactive: dose: 2.5 mg/kg/injection, schedule: Q01DX005 (ip), vehicle: saline + alcohol 99 % of control | dose: 5.0 mg/kg/injection, schedule: Q01DX005 (ip), vehicle: saline + alcohol 96 % of control | dose: 10.0 mg/kg/injection, schedule: Q01DX005 (ip), vehicle: saline + alcohol 110 % of control | dose: 20.0 mg/kg/injection, schedule: Q01DX005 (ip), vehicle: saline + alcohol 91 % of control

O=C1NC(=S)S/C1=C\c1ccncc1
inactive: dose: 50.0 mg/kg/injection, schedule: Q01DX009 (ip), vehicle: Klucel (hydroxypropylcellulose) (HPC) 100 % of control and 110 % of control and 116 % of control | dose: 100.0 mg/kg/injection, schedule: Q01DX009 (ip), vehicle: Klucel (hydroxypropylcellulose) (HPC) 106 % of control (2×) and 114 % of control | dose: 200.0 mg/kg/injection, schedule: Q01DX009 (ip), vehicle: Klucel (hydroxypropylcellulose) (HPC) 98 % of control and 121 % of control and 91 % of control | dose: 400.0 mg/kg/injection, schedule: Q01DX009 (ip), vehicle: Klucel (hydroxypropylcellulose) (HPC) 106 % of control

O=C1OC(=O)c2cc([N+](=O)[O-])cc3cccc1c23
inactive: [3] 108 % of control and 110 % of control (2×) | [4] 100 % of control and 103 % of control and 111 % of control | [5] 102 % of control and 110 % of control and 123 % of control | dose: 400.0 mg/kg/injection, schedule: Q01DX005 (ip), vehicle: saline with Tween-80 119 % of control

COc1ccc2c(c1)CC[n+]1c-2ccc2c1CCC2=O
inactive: [3] 111 % of control

[Cu+2].[NH-]C(CC(=O)O)C(=O)O.[NH-]C(CC(=O)O)C(=O)O (configuration not stated)
inactive: dose: 7.5 mg/kg/injection, schedule: Q01DX005 (ip), vehicle: saline with Tween-80 98 % of control | dose: 15.0 mg/kg/injection, schedule: Q01DX005 (ip), vehicle: saline with Tween-80 100 % of control | dose: 30.0 mg/kg/injection, schedule: Q01DX005 (ip), vehicle: saline with Tween-80 111 % of control

COc1cc(Br)c(CC(=O)c2ccc3c(c2)OCO3)cc1OC
inactive: [3] 86 % of control | [5] 87 % of control

CCC(=O)OC1CCC2C3CCC(=O)OC3C(C)(CCC(=O)O)CC12C (configuration not stated)
inactive: [3] 93 % of control | [4] 99 % of control | [5] 90 % of control
